{
  "source": "patent US5432165A",
  "about": "“Methods for the treatment of infection caused by Hepatitis B virus (HBV)” (priority 1992, dated 1995)",
  "key": {"[1]": {"tested_on": "woodchuck hepatitis virus", "conditions": "cited from earlier work"}, "hepatitis B virus": {"tested_on": "hepatitis B virus", "conditions": "cited from earlier work; for HBV markers after dosing was stopped: chronic HBV patients"}, "[2]": {"test": "Peak and trough plasma levels of FIAU and FAU by HPLC", "type": "in vivo, human", "conditions": "in vivo", "text": "Additionally at Baseline, archive plasma samples were taken."}, "[3]": {"test": "Stability in an acid environment", "type": "physicochemical", "conditions": "such as is found in the human stomach"}, "HSV-1": {"tested_on": "HSV-1", "conditions": "read-out: in vitro ED90; cited from earlier work"}, "CMV": {"tested_on": "CMV", "conditions": "read-out: in vitro ED90; cited from earlier work"}, "[4]": {"conditions": "typical; read-out: cellular toxicity concentration (ID50); cited from earlier work"}, "[5]": {"target": "DNA polymerase enzyme of human hepatitis B virus (Hepatitis B virus genotype D subtype ayw, UniProt P03156)", "sequence (P03156 whole entry)": "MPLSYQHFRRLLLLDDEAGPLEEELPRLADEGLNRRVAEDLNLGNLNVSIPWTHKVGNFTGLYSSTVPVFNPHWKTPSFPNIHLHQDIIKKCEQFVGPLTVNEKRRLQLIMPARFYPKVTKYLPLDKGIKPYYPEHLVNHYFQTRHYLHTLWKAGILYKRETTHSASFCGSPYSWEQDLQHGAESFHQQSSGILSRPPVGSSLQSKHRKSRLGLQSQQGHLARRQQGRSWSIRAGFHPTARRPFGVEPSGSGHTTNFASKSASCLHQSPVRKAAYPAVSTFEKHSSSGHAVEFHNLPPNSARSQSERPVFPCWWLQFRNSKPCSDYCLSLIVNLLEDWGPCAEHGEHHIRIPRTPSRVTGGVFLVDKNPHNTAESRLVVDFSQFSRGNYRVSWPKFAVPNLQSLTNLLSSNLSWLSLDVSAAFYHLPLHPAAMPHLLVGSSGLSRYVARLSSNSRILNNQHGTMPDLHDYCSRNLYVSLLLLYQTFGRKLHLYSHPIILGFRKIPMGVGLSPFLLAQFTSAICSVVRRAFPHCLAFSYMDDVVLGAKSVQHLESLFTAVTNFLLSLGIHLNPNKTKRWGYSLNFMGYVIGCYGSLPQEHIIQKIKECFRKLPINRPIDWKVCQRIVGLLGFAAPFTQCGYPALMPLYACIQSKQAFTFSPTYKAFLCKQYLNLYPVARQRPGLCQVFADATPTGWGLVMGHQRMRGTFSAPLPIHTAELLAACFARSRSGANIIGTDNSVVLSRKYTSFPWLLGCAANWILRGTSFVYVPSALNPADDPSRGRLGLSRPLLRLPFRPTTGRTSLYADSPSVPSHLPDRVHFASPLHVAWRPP", "conditions": "read-out: concentration inhibiting DNA polymerase activity by 50 percent; cited from earlier work"}, "[6]": {"target": "DNA polymerase enzyme of woodchuck hepatitis virus (Woodchuck hepatitis B virus, UniProt P03160)", "sequence (P03160 whole entry)": "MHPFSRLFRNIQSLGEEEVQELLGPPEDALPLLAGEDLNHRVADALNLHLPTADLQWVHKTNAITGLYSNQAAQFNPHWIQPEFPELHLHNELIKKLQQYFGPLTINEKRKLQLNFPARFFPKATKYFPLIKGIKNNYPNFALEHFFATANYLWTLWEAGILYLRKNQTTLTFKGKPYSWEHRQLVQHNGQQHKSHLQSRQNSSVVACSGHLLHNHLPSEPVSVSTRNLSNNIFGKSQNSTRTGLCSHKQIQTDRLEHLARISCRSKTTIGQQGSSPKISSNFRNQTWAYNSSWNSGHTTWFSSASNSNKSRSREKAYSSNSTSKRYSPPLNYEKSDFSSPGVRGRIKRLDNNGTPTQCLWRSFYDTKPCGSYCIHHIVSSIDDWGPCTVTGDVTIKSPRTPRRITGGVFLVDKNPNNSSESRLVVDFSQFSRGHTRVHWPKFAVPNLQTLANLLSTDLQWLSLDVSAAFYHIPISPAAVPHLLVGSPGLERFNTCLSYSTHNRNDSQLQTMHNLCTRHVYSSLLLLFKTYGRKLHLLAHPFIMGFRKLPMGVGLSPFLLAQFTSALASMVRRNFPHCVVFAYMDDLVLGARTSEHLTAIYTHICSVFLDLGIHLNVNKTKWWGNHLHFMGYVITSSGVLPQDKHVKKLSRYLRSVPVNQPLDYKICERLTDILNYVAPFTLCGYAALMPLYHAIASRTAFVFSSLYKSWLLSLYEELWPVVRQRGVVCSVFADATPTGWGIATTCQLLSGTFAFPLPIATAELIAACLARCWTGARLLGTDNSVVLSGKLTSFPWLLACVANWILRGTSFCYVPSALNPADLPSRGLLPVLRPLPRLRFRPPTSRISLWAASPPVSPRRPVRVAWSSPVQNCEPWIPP", "conditions": "read-out: concentration inhibiting DNA polymerase activity by 50 percent; cited from earlier work"}, "[7]": {"conditions": "cited from earlier work"}, "[8]": {"conditions": "chronic type therapy at HBV DNA suppressive doses"}},
  "note": "Where two headings read alike, the source gives them in different places.",
  "data": [
    {"compound": "Nc1ncnc2c1ncn2[C@@H]1O[C@H](COP(=O)(O)O)[C@@H](O)[C@@H]1O", "note": "[ara-AMP]", "values": [
      {"measurement": "suppression of viral DNA", "setting": "[1]; similar dose given for 14 days", "result": "suppressed viral DNA but was followed by a rapid rebound to levels above baseline"},
      {"measurement": "HBV markers after dosing was stopped", "setting": "hepatitis B virus", "result": "very rapidly rebounded to baseline levels and above"},
      {"measurement": "HBV markers after dosing was stopped", "setting": "hepatitis B virus; listed as Ara-AMP", "result": "rapid rebound of DNA levels to pretreatment levels after 10-28 days of therapy is the norm"},
      {"measurement": "toxicity on continued administration", "setting": "hepatitis B virus; [8]", "result": "intolerably toxic"},
      {"measurement": "toxicity on continued administration", "setting": "hepatitis B virus; human, in vivo", "result": "too toxic (persistent and severe neuromuscular pain)"}
    ]},
    {"compound": "O=c1ccn([C@@H]2O[C@H](CO)[C@@H](O)[C@@H]2F)c(=O)[nH]1", "note": "[FAU, 1-(2'-deoxy-2'-fluoro-β-D-arabinofuranosyl)uracil]", "values": [
      {"measurement": "FAU plasma values (rarely exceeded)", "setting": "[2]; human, po, 1 mg/kg/day", "result": "≤ 0.15", "unit": "µg/mL"},
      {"measurement": "FAU plasma values after the initial dose", "setting": "[2]", "result": "almost always undetectable"}
    ]},
    {"compound": "interferon-alpha", "values": [
      {"measurement": "patients with major and sustained decreases in HBV DNA", "setting": "hepatitis B virus; HBeAg positive chronic HBV infection, therapy for months", "result": "less than half of patients"},
      {"measurement": "patient population in which effective", "setting": "hepatitis B virus; reported", "result": "effective only in non-HIV infected patients with baseline entry serum HBV DNA levels less than 200 pg/ml"}
    ]},
    {"compound": "Nc1nc(=O)n([C@@H]2O[C@H](CO)[C@@H](O)[C@@H]2F)cc1I", "note": "[FIAC, 1-(2'-deoxy-2'-fluoro-β-D-arabinofuranosyl)-5-iodocytosine]", "values": [
      {"measurement": "stability in an acid environment", "setting": "[3]", "result": "stable in an acid environment"},
      {"measurement": "EC90", "setting": "HSV-1", "result": "~50", "unit": "nM"},
      {"measurement": "EC90", "setting": "CMV", "result": "~500", "unit": "nM"},
      {"measurement": "CC50", "setting": "[4]", "result": "~10000", "unit": "nM"},
      {"measurement": "IC50", "setting": "[5]", "result": "50 to 100", "unit": "nM"},
      {"measurement": "IC50", "setting": "[6]", "result": "50 to 100", "unit": "nM"},
      {"measurement": "suppression of viral polymerase and DNA", "setting": "[1]; FIAC 20 mg/kg-day for 7 days", "result": "Rapid, complete and persistent suppression"},
      {"measurement": "accumulation in the plasma", "setting": "[7]; month long TID dosing of FIAC", "result": "neither FIAC, FIAU, or their metabolites accumulated in the plasma"},
      {"measurement": "absorption following oral administration", "setting": "[7]; oral FIAC, patients", "result": "nearly completely absorbed"},
      {"measurement": "conversion of FIAC to FIAU", "setting": "[7]; oral FIAC, patients", "result": "very rapidly converted to FIAU"},
      {"measurement": "FIAC in plasma two hours after dosing", "setting": "[7]; oral FIAC", "result": "almost never detected"}
    ]},
    {"compound": "Nc1ncnc2c1ncn2[C@@H]1O[C@H](CO)[C@@H](O)[C@@H]1O", "note": "[ara-A]", "values": [
      {"measurement": "HBV markers after dosing was stopped", "setting": "hepatitis B virus", "result": "very rapidly rebounded to baseline levels and above"},
      {"measurement": "toxicity on continued administration", "setting": "hepatitis B virus; [8]", "result": "too toxic (persistent and severe neuromuscular pain)"}
    ]}
  ]
}
